Laboratory results from ChEMBL document CHEMBL1817641, “Synthesis and biological evaluation of some novel N-aryl-1,4-dihydropyridines as potential antitubercular agents” (Bioorg Med Chem Lett, 2011).
Values after ≈ are worked out from the molar mass of the structure shown.

system: Mycobacterium tuberculosis; assay: Antitubercular activity against Mycobacterium tuberculosis H37Rv at 6.25 ug/mL after 4 days by MABA assay; format: functional; conditions: 96 h

| SMILES | inhibition at 6.25 µg/mL |
| --- | --- |
| COc1ccccc1N1C(C)=C(C(C)=O)C(c2cn(-c3ccccc3)nc2-c2ccccc2)C(C(C)=O)=C1C | 25% |
| COc1ccc(N2C(C)=C(C(C)=O)C(c3cn(-c4ccccc4)nc3-c3ccccc3)C(C(C)=O)=C2C)cc1 | 69% |
| CCOC(=O)C1=C(C)N(c2cccc(OC)c2)C(C)=C(C(=O)OCC)C1c1cn(-c2ccccc2)nc1-c1ccccc1 | 55% |
| CCOC(=O)C1=C(C)N(c2ccc(OC)cc2)C(C)=C(C(=O)OCC)C1c1cn(-c2ccccc2)nc1-c1ccccc1 | 33% |
| CC(=O)C1=C(C)N(c2cccc(Cl)c2)C(C)=C(C(C)=O)C1c1cn(-c2ccccc2)nc1-c1ccccc1 | 76% |
| CCOC(=O)C1=C(C)N(c2ccccc2OC)C(C)=C(C(=O)OCC)C1c1cn(-c2ccccc2)nc1-c1ccccc1 | 39% |
| COc1cccc(N2C(C)=C(C(C)=O)C(c3cn(-c4ccccc4)nc3-c3ccccc3)C(C(C)=O)=C2C)c1 | 77% |
| CCOC(=O)C1=C(C)N(c2ccccc2C)C(C)=C(C(=O)OCC)C1c1cn(-c2ccccc2)nc1-c1ccccc1 | 95% |
| CCOC(=O)C1=C(C)N(c2ccccc2Cl)C(C)=C(C(=O)OCC)C1c1cn(-c2ccccc2)nc1-c1ccccc1 | 100% |
| CC(=O)C1=C(C)N(c2ccc(C)cc2)C(C)=C(C(C)=O)C1c1cn(-c2ccccc2)nc1-c1ccccc1 | 34% |
| CCOC(=O)C1=C(C)N(c2ccc(C)cc2)C(C)=C(C(=O)OCC)C1c1cn(-c2ccccc2)nc1-c1ccccc1 | 48% |
| CCOC(=O)C1=C(C)N(c2cccc(C)c2)C(C)=C(C(=O)OCC)C1c1cn(-c2ccccc2)nc1-c1ccccc1 | 98% |
| CCOC(=O)C1=C(C)N(c2ccc(Cl)cc2)C(C)=C(C(=O)OCC)C1c1cn(-c2ccccc2)nc1-c1ccccc1 | 74% |
| CCOC(=O)C1=C(C)N(c2ccccc2)C(C)=C(C(=O)OCC)C1c1cn(-c2ccccc2)nc1-c1ccccc1 | 96% |
| CC(=O)C1=C(C)N(c2ccccc2Cl)C(C)=C(C(C)=O)C1c1cn(-c2ccccc2)nc1-c1ccccc1 | 59% |
| CC(=O)C1=C(C)N(c2ccc(Cl)cc2)C(C)=C(C(C)=O)C1c1cn(-c2ccccc2)nc1-c1ccccc1 | 29% |
| CC(=O)C1=C(C)N(c2ccccc2C)C(C)=C(C(C)=O)C1c1cn(-c2ccccc2)nc1-c1ccccc1 | 97% |
| CC(=O)C1=C(C)N(c2ccccc2)C(C)=C(C(C)=O)C1c1cn(-c2ccccc2)nc1-c1ccccc1 | 48% |
| CC(=O)C1=C(C)N(c2cccc(C)c2)C(C)=C(C(C)=O)C1c1cn(-c2ccccc2)nc1-c1ccccc1 | 98% |
| CCOC(=O)C1=C(C)N(c2cccc(Cl)c2)C(C)=C(C(=O)OCC)C1c1cn(-c2ccccc2)nc1-c1ccccc1 | 97% |

system: Mycobacterium tuberculosis; assay: Antitubercular activity against Mycobacterium tuberculosis H37Rv after 4 days by MABA assay; format: functional; conditions: 96 h

| SMILES | MIC |
| --- | --- |
| CCOC(=O)C1=C(C)N(c2ccccc2C)C(C)=C(C(=O)OCC)C1c1cn(-c2ccccc2)nc1-c1ccccc1 | 3.13 µg/mL (≈ 5.57 µM) |
| CCOC(=O)C1=C(C)N(c2ccccc2Cl)C(C)=C(C(=O)OCC)C1c1cn(-c2ccccc2)nc1-c1ccccc1 | 0.02 µg/mL (≈ 0.0344 µM) |
| CCOC(=O)C1=C(C)N(c2ccc(C)cc2)C(C)=C(C(=O)OCC)C1c1cn(-c2ccccc2)nc1-c1ccccc1 | 48 µg/mL (≈ 85.5 µM) |
| CCOC(=O)C1=C(C)N(c2cccc(C)c2)C(C)=C(C(=O)OCC)C1c1cn(-c2ccccc2)nc1-c1ccccc1 | 1.56 µg/mL (≈ 2.78 µM) |
| CCOC(=O)C1=C(C)N(c2ccccc2)C(C)=C(C(=O)OCC)C1c1cn(-c2ccccc2)nc1-c1ccccc1 | 1.56 µg/mL (≈ 2.85 µM) |
| NNC(=O)c1ccncc1 [ISONIAZID] | 0.03 µg/mL (≈ 0.219 µM) |
| CC(=O)C1=C(C)N(c2ccccc2C)C(C)=C(C(C)=O)C1c1cn(-c2ccccc2)nc1-c1ccccc1 | 3.13 µg/mL (≈ 6.24 µM) |
| CC(=O)C1=C(C)N(c2cccc(C)c2)C(C)=C(C(C)=O)C1c1cn(-c2ccccc2)nc1-c1ccccc1 | 6.25 µg/mL (≈ 12.5 µM) |
| CCOC(=O)C1=C(C)N(c2cccc(Cl)c2)C(C)=C(C(=O)OCC)C1c1cn(-c2ccccc2)nc1-c1ccccc1 | 1.56 µg/mL (≈ 2.68 µM) |

system: Vero; assay: Cytotoxicity against african green monkey Vero cells; format: cell-based; conditions: Chlorocebus sabaeus

| SMILES | IC50 |
| --- | --- |
| CCOC(=O)C1=C(C)N(c2ccccc2C)C(C)=C(C(=O)OCC)C1c1cn(-c2ccccc2)nc1-c1ccccc1 | > 10 µg/mL |
| CCOC(=O)C1=C(C)N(c2ccccc2Cl)C(C)=C(C(=O)OCC)C1c1cn(-c2ccccc2)nc1-c1ccccc1 | > 10 µg/mL |
| CCOC(=O)C1=C(C)N(c2cccc(C)c2)C(C)=C(C(=O)OCC)C1c1cn(-c2ccccc2)nc1-c1ccccc1 | > 10 µg/mL |
| CCOC(=O)C1=C(C)N(c2ccccc2)C(C)=C(C(=O)OCC)C1c1cn(-c2ccccc2)nc1-c1ccccc1 | > 10 µg/mL |
| CC(=O)C1=C(C)N(c2ccccc2C)C(C)=C(C(C)=O)C1c1cn(-c2ccccc2)nc1-c1ccccc1 | > 10 µg/mL |
| CC(=O)C1=C(C)N(c2cccc(C)c2)C(C)=C(C(C)=O)C1c1cn(-c2ccccc2)nc1-c1ccccc1 | > 10 µg/mL |
| CCOC(=O)C1=C(C)N(c2cccc(Cl)c2)C(C)=C(C(=O)OCC)C1c1cn(-c2ccccc2)nc1-c1ccccc1 | 7.08 µg/mL (≈ 12.2 µM) |

system: not listed separately; assay: Selectivity index, ratio of IC50 for african green monkey Vero cells to MIC for Mycobacterium tuberculosis H37Rv; format: functional; conditions: not given

| SMILES | Selectivity Index |
| --- | --- |
| CCOC(=O)C1=C(C)N(c2ccccc2C)C(C)=C(C(=O)OCC)C1c1cn(-c2ccccc2)nc1-c1ccccc1 | >3.2 |
| CCOC(=O)C1=C(C)N(c2ccccc2Cl)C(C)=C(C(=O)OCC)C1c1cn(-c2ccccc2)nc1-c1ccccc1 | >500 |
| CCOC(=O)C1=C(C)N(c2cccc(C)c2)C(C)=C(C(=O)OCC)C1c1cn(-c2ccccc2)nc1-c1ccccc1 | >6.4 |
| CCOC(=O)C1=C(C)N(c2ccccc2)C(C)=C(C(=O)OCC)C1c1cn(-c2ccccc2)nc1-c1ccccc1 | >6.4 |
| CC(=O)C1=C(C)N(c2ccccc2C)C(C)=C(C(C)=O)C1c1cn(-c2ccccc2)nc1-c1ccccc1 | >3.2 |
| CC(=O)C1=C(C)N(c2cccc(C)c2)C(C)=C(C(C)=O)C1c1cn(-c2ccccc2)nc1-c1ccccc1 | >1.6 |
| CCOC(=O)C1=C(C)N(c2cccc(Cl)c2)C(C)=C(C(=O)OCC)C1c1cn(-c2ccccc2)nc1-c1ccccc1 | 4.5 |
